US20240270786A1, “STEROID COMPOUNDS” (Epirium Bio Inc., priority 2022, published 2024)

What was measured:
Format in all cases: biochemical, mouse
[1] = system: mitochondrial ATP synthase; test: ATP synthesis (oxygen consumption, Seahorse XF96) in fresh heart mitochondria; settings: Complex I or Complex II substrates (FIG. 1, FIG. 2)
Text: (§1) To assess whether the fraction of synthetic and reverse hydrolytic activities of mitochondrial ATP synthase can be measured in the same preparation, a protocol was developed to monitor changes in oxygen consumption and proton release in response to changes in mitochondrial ATP synthase activity. The proton released and the concomitant changes in the pH can be monitored using the ECAR (extracellular acidification) channel in the Agilent Seahorse XF analyzer using isolated mitochondria, to ensure that the changes in pH cannot be attributed to glycolysis or other contributors to ECAR.
Mice were anesthetized with isoflurane followed by a cervical dislocation, and the heart was immediately removed and placed in ice cold relaxation buffer (5 mM sodium pyrophosphate, 100 mM KCl, 5 mM EGTA, 5 mM HEPES; pH 7.4). […] The mitochondrial pellets were re-suspended in ice cold HES buffer and mitochondrial protein was measured with a BCA assay (Pierce). […]
Oxygen consumption was measured in isolated fresh intact mitochondria from mouse heart, as oxygen consumption is linked to maximal ATP synthesis and proton release when mitochondria are respiring either in the presence of substrates and ADP (ATP synthesizing mitochondria or state 3) or in the presence of substrates but not ADP (state 4). […]

[2] = system: mitochondrial ATP synthase; test: ATP hydrolysis (acidification, Seahorse XF96) in fresh heart mitochondria; settings: fresh heart mitochondria (FIG. 1, FIG. 2)
Text: as §1
Mice were anesthetized with isoflurane followed by a cervical dislocation, and the heart was immediately removed and placed in ice cold relaxation buffer (5 mM sodium pyrophosphate, 100 mM KCl, 5 mM EGTA, 5 mM HEPES; pH 7.4). The heart was squeezed with tweezers to remove blood, minced with scissors, and then placed in a glass-glass Dounce homogenizer with 3 mL of HES homogenization buffer (250 mM sucrose, 5 mM HEPES, 1 mM EDTA; pH to 7.2, adjusted with KOH). The heart tissue was homogenized first with the loose pestle and followed by the tight pestle. The homogenized tissue was placed in a pre-chilled 15 mL conical tube and centrifuged at 900×g (4° C.) for 10 minutes (min). The supernatant was removed, placed in a new tube and centrifuged again at 900×g for 10 min. The supernatant was then transferred to 2 mL microcentrifuge tubes and centrifuged at 10,000×g (4° C.) for 10 min. The mitochondrial pellets were re-suspended in ice cold HES buffer and mitochondrial protein was measured with a BCA assay (Pierce). The concentrated mitochondrial pellet was stored on ice. […]
ATP hydrolysis capacity or state 4 acidification was measured using Seahorse XF96 as described in Divakaruni et al. (2018) Anal Biochem 552:60-65 and Acin-Perez et al. (2021) Life 11(9):949, in MAS (70 mM Sucrose, 220 mM Mannitol, 5 mM KH2PO4, 5 mM MgCl2, 1 mM EGTA, 2 mM HEPES; pH 7.2). […]

[3] = system: mitochondrial ATP synthase; test: Maximal ATP hydrolysis capacity in frozen heart mitochondria; settings: oligomycin at different concentrations in the assay media
Protocol: Plates were loaded with 0.75-1.5 μg of mouse heart mitochondria, or 25 μg of cell lysate. Cell lysates were prepared by subjecting the samples to 4 cycles of free thaw (liquid nitrogen—37° C. water bath) before measuring protein concentration. When assessing compounds effect on respirometry, the compounds were added in MAS after sample centrifugation. Initial respiration of the samples was sustained by the addition of 5 mM succinate+2 μM rotenone in the MAS after centrifugation. Injections were performed at the following final concentration in the well: Antimycin A (2 μM), oligomycin (5 μM), FCCP (1 μM), ATP (20 mM). To assess maximal ATP concentration, ATP was injected consecutively. An additional assay was developed to determine the maximal ATP hydrolysis capacity in frozen mitochondria. Maximal ATP hydrolytic capacity was assessed in frozen heart mitochondria where mitochondrial respiration is inhibited by Antimycin A and maximal ATP hydrolysis is driven by co-injection of FCCP and ATP, followed by inhibition in the presence of oligomycin.

CC[C@H]1/C=C/C=C/C[C@@H](C)[C@H](O)[C@@](C)(O)C(=O)[C@@H](C)[C@H](O)[C@@H](C)C(=O)[C@@H](C)[C@H](O)[C@@H](C)/C=C/C(=O)O[C@@H]2[C@H](C)[C@H](CC1)O[C@]1(CC[C@H](C)[C@H](C[C@@H](C)O)O1)[C@H]2C [Oligomycin, oligomycin, reference compound]
ATP synthesis [1]: worked as expected
ATP hydrolysis [2]: worked as expected
ATP hydrolysis [3]: dose dependent inhibition of ATP hydrolysis
